Reference: patent publication US20250228832A1, “METHODS FOR TREATING DISORDERS AMELIORATED BY MUSCARINIC RECEPTOR ACTIVATION” (KARUNA THERAPEUTICS, INC., priority 2022, published 2025)
Read-outs that look alike come from different tables or passages of the source.

Target: T1, human M1 receptor (Homo sapiens, UniProt P11229)
T1 construct: expressed in transfected cells
T1 sequence (P11229 1-460): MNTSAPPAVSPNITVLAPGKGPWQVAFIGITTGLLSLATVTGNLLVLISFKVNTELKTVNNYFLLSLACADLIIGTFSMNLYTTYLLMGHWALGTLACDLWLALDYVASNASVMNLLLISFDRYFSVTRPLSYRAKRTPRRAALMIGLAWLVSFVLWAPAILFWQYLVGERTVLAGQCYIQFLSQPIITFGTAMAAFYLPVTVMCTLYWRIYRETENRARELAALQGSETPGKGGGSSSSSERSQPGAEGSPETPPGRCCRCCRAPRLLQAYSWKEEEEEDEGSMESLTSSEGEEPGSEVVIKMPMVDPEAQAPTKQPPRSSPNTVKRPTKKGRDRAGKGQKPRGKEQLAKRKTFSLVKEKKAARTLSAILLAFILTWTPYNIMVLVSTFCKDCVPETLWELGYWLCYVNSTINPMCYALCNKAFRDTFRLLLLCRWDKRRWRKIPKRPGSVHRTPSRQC
Assay: HTRF IP-One curve shift assay, M1
Type: cell-based
Protocol: HTRF IP-One assays were performed using frozen cell aliquots prepared from CHO-K1 cell lines stably expressing human M1, M3, or M5 receptors. Cells were frozen following typical cell freezing protocols. […] Dissociated cells were quenched in full media and collected by centrifugation at 290×g for 5 min. […] 1 mL aliquots of cells were dispensed into cryovial tubes and frozen in a controlled rate cryo-freezer container at −80° C. Cells were stored at −80° C. (or in liquid nitrogen if stored for at least six months) until the day of the assay.
On the day before the assay, frozen cells were rapidly thawed in a 37° C. water bath, brought up in 20 mL of full media, and collected via centrifugation at 290×g for 5 min. […] Next, […] of cells (10,000 cells/well) were dispensed into 384-well coming plates in triplicate. Cells were incubated overnight in a 37° C., 5% CO2 cell incubator.
Then, 2 μL of test compounds were added to the cells and incubated for 10 min at 37° C. in a 5% CO2 cell incubator. Next, 2 μL of diluted agonists serially diluted in assay buffer at 7× final assay concentration was added to assay plates. Finally, assay plates were incubated for two hours at 37° C. in a 5% CO2 cell incubator.
Six μL of IP-1 detection reagents (IP-One Gq HTRF kit, Cisbio Cat #62IPAPEJ) were dispensed to the cells. First, the plates were incubated for two hours at room temperature (IP-One detection reagents were made according to Cisbio protocol). Then, plates were read on an Envision plate reader following the Cisbio guidelines.
Raw data for all assays was transmitted directly from plate readers into the Beacon database for processing. All assay plates contained positive and negative control wells for data normalization and scaling. […] All control wells contained DMSO at a final assay concentration that matched the test compound wells.
Counts from the standard curve wells were used to generate a sigmoidal standard curve, which was used to transform the raw counts from each well on the plate (scaling control wells and compound wells) into a pmol/well IP1 value.

[1] = Emraclidine concentration 41.2 nM, read-out: Emax
[2] = Emraclidine concentration 123 nM, read-out: Emax
[3] = Emraclidine concentration 370 nM
[4] = Emraclidine concentration 1110 nM, read-out: Emax
[5] = Emraclidine concentration 3330 nM, read-out: Emax
[6] = MK-4710 concentration 41.2 nM, read-out: Emax
[7] = MK-4710 concentration 123 nM, read-out: Emax
[8] = MK-4710 concentration 1110 nM, read-out: Emax
[9] = MK-4710 concentration 3330 nM, read-out: Emax

| EC50 (Emraclidine concentration 0 nM) [nM] | Emax (Emraclidine concentration 0 nM) [%] | Emax [1] [%] | Emax [2] [%] | Emax at […] [3] [%] | Emax [4] [%] | Emax [5] [%] | Emax at […] (Emraclidine concentration […]) [%] | α (cooperativity, affinity shift) (M4 PAM Emraclidine) | β (cooperativity, efficacy shift) (M4 PAM Emraclidine) | τ (agonist pharmacology) (M4 PAM Emraclidine) | α (cooperativity, affinity shift) (M4 PAM MK-4710) | β (cooperativity, efficacy shift) (M4 PAM MK-4710) | τ (agonist pharmacology) (M4 PAM MK-4710) | EC50 (MK-4710 concentration 0 nM) [nM] | Emax [6] [%] | Emax [7] [%] | Emax at […] (MK-4710 concentration 370 nM) [%] | Emax [8] [%] | Emax [9] [%] | SMILES | other results |
| --- | --- | --- | --- | --- | --- | --- | --- | --- | --- | --- | --- | --- | --- | --- | --- | --- | --- | --- | --- | --- | --- |
| 7 | 61.6 | 65.6 | 66.5 | 71.3 | 72.8 | 79 | 61 | 11.3 | 2.2 | 0.0 | 3.5 | 0.6 | 0.0 | 8.4 | 81.5 | 79.6 | 80.9 | 86.1 | 85.8 | CCCCCOc1nsnc1C1=CCCCN1C [KTX-517, 3-(1-methyl-1,4,5,6-tetrahydropyridin-2-yl)-4-(pentyloxy)-1,2,5-thiadiazole] | Emax at […] (MK-4710 concentration […]): 77.8% |
| 1190 | 73.6 | 81.4 | 90.4 | 95.1 | 100 | 103 | 73.2 | 1.0 | 1.2 | 0.0 | 3.0 | 0.5 | 0.0 | 1750 | 102 | 97.1 | 92.3 | 83.6 | 69.9 | CC1OC2(CS1)CN1CCC2CC1 (centres unmarked) [cevimeline, Cevimeline, reference compound] | Emax (MK-4710 concentration 0 nM): 86.1%; Emax at […] (MK-4710 concentration […]): 88.8% |
| 10.1 | 77.8 | 83.1 | 85.4 | 88.4 | 85.2 | 87.8 | 83.9 | 3.2 | 0.8 | 0.0 | 4.1 | 0.6 | 0.0 | 8.7 | 82.7 | 79.9 | 78.3 | 76.8 | 76.7 | CCCCCCCOc1nsnc1C1=CCCCN1C [KTX-593, 3-(heptyloxy)-4-(1-methyl-1,4,5,6-tetrahydropyridin-2-yl)-1,2,5-thiadiazole] | Emax (MK-4710 concentration 0 nM): 83.7%; EC50 (MK-4710 concentration 41.2 nM): 7.6 nM; EC50 (MK-4710 concentration 123 nM): 8.3 nM; EC50 (MK-4710 concentration 370 nM): 6.5 nM; EC50 (MK-4710 concentration 1110 nM): 6.8 nM; EC50 (MK-4710 concentration 3330 nM): 5.3 nM; EC50 (MK-4710 concentration […]): 8.8 nM; Emax at […] (MK-4710 concentration […]): 77.6% |
